Columns and labels:
hEP3A = target: T1, hEP3A (Homo sapiens, UniProt P43115); assay: Other receptors functional assay, hEP3A; format: cell-based
T1 sequence (P43115 1-390): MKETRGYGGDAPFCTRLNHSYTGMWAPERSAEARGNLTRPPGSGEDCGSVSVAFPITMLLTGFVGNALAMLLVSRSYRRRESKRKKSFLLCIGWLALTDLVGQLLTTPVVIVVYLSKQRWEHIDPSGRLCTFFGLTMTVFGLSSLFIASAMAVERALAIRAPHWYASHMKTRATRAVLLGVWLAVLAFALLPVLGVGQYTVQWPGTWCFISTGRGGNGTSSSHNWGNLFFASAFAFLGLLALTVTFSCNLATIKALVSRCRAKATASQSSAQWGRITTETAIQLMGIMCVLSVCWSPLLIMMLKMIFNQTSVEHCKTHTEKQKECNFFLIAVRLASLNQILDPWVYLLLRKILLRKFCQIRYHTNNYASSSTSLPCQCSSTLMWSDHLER
From the text: (§1) U.S. patent application Ser. No. 11/553,143, filed on Oct. 26, 2006, incorporated by reference herein, describes the methods used to obtain the in vitro data in the table below.

EP2 [1] = target: T2, EP2 (Homo sapiens, UniProt P43116); assay: EP2 binding (Ki)
From the text: as §1

EP2 [2] = target: T2, EP2; assay: EP2 flipr functional assay; format: cell-based
From the text: as §1

EP4 [3] = target: T3, EP4 (Homo sapiens, UniProt P35408); assay: EP4 binding (KI)
From the text: as §1

EP2 [4] = target: T2, EP2; assay: EP2 cAMP assay; format: cell-based
From the text: as §1

EP4 [5] = target: T3, EP4; assay: EP4 flipr functional assay; format: cell-based
From the text: as §1

T2 sequence (P43116 whole entry): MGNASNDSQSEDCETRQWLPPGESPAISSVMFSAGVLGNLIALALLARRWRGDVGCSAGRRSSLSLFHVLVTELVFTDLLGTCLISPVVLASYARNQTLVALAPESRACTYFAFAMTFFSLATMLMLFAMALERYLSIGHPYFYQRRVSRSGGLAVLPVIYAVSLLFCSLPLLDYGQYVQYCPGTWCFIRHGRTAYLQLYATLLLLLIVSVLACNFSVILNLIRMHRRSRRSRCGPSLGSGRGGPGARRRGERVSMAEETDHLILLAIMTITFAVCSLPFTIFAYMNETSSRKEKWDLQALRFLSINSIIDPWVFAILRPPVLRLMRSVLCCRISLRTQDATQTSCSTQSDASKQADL
T3 sequence (P35408 whole entry): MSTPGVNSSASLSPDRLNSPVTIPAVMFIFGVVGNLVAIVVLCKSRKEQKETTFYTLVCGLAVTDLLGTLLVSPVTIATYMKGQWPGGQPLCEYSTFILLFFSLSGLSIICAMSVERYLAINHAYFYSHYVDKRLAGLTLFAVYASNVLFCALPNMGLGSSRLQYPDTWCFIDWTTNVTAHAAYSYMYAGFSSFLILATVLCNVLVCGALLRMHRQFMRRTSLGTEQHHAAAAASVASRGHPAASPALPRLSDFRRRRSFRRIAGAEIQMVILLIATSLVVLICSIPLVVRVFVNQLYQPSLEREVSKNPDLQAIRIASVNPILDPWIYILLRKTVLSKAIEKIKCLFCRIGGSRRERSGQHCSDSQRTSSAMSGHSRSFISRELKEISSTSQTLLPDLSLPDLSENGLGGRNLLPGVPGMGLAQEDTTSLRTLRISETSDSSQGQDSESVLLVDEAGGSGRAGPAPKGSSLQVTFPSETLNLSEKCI

EC50 (hEP3A): 6450 nM
Ki (EP2 [1]): 2.57 µM
EC50 (EP2 [2]): 8.51 µM
Ki (EP4 [3]): 7.3 µM
EC50 (EP2 [4]): 0.081 µM
EC50 (EP4 [5]): > 10 µM
Compound: O=C(O)c1ccc(COC[C@H]2CCC(=O)N2Cc2cc(Cl)cc(Cl)c2)s1 [(R)-5-(((1-(3,5-dichlorobenzyl)-5-oxopyrrolidin-2-yl)methoxy)methyl)thiophene-2-carboxylic acid]
